Laboratory results as given in ChEMBL document CHEMBL1667752 (Eur J Med Chem, 2011).

How the values were obtained:
[1] = species on record: Homo sapiens; test: Selectivity ratio of Ki for human CB1 to Ki for human CB2
[2] = biological target: Cannabinoid receptor 2 (Homo sapiens, UniProt P34972); test: Displacement of [3H]CP 55940 from human CB2 receptor in cell free system
[3] = biological target: Cannabinoid receptor 1 (Homo sapiens, UniProt P21554); test: Displacement of [3H]CP 55940 from human CB1 receptor in cell free system
Chain of Cannabinoid receptor 1 (P21554 whole entry): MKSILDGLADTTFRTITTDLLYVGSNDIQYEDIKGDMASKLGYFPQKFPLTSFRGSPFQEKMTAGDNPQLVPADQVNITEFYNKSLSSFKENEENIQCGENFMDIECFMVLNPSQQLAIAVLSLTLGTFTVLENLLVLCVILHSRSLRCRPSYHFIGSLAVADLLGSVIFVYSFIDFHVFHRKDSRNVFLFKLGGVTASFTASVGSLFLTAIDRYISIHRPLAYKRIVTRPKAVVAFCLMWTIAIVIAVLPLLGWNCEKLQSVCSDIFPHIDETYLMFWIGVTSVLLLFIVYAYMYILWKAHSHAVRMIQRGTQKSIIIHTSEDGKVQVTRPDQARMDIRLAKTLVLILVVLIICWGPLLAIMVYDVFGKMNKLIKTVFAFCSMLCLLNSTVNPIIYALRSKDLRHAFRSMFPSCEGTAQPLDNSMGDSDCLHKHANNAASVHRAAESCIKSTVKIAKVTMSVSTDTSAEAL

Chain of Cannabinoid receptor 2 (P34972 whole entry): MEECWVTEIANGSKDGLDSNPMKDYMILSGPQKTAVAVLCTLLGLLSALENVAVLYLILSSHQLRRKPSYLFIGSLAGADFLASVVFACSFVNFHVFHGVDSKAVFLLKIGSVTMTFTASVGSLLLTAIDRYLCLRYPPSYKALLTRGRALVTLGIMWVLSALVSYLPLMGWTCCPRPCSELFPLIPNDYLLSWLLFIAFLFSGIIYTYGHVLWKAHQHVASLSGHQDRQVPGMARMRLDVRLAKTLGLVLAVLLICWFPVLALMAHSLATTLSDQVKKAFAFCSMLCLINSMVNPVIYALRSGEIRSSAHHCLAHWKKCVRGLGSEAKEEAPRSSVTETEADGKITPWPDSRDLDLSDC

Row | Compound | log(ratioKi) [1] | Ki ([2]; read-out: pKi (converted)) [nM] | Ki [3] [nM] | Ki ([2]; read-out: Ki) [nM]
1 | CC1=CC[C@@H]2[C@@H](C1)c1c(O)cc(-c3cccc4ccccc34)cc1OC2(C)C | 0.09 |  |  | 
2 | O=S(=O)(CCCC(F)(F)F)Oc1cccc(Oc2cccc3c2C[C@H](CO)C3)c1 |  | 4.27 |  | 
3 | Cc1ccc2c(c1)Cc1c(C(=O)NN3CCCCC3)nn(-c3ccc(Cl)cc3Cl)c1-2 | 3.95 |  | 363 | 0.04
4 | CCCCCn1cc(C(=O)NC23CC4CC(CC(C4)C2)C3)c(=O)c2cc(-c3c(C)noc3C)ccc21 |  | 102 |  | 
5 | CC1=CC[C@@H]2[C@@H](C1)c1c(O)cc(C(C)(C)c3cccs3)cc1OC2(C)C | 1.13 |  | 12.3 | 0.91
6 | Cc1ccc2c(C(=O)C3C(C)(C)C3(C)C)cn(CC3CCOCC3)c2c1 |  |  |  | 0.2
7 | Cc1ccc2c(=O)c(C(=O)NC3CCCC3)cn(CCN3CCOCC3)c2n1 | 1.3 |  | 1000 | 50
8 | CC1(C)C(C(=O)c2cn(CC3CCOCC3)c3cc(-c4ccccc4)ccc23)C1(C)C | 2.27 |  |  | 0.4
9 | Cc1ccc(-c2nc(CC3CCCCC3)cs2)cc1S(=O)(=O)N1CCOCC1 | 1.22 |  |  | 
10 | Cc1ccc(C(=O)NC2C(C)(C)[C@@H]3CC[C@]2(C)C3)cc1S(=O)(=O)N1CCOCC1 (stereo partly drawn) | 1.5 |  | 130 | 3.9
11 | Cc1c(C(C)(C)C)s/c(=N\C(=O)c2ccc(Br)cc2)n1CC1CC1 | 1.6 |  | 53 | 1.2
12 | N#Cc1c(Oc2cccc(OS(=O)(=O)CCCC(F)(F)F)c2)cccc1C(F)(F)F | 0.03 |  | 48.3 | 
13 | CCC(C)(C)C(=O)Cc1cc(C)c(C)c(S(=O)(=O)N2CCCCC2)c1 | 2.38 |  | 650 | 2.7
14 | CCCCCn1cc(C(=O)NC23CC4CC(CC(C4)C2)C3)c(=O)c2cc(-n3ccnc3)ccc21 | 3.1 |  |  | 
15 | C#Cc1ccc2c(c1)c(=O)c(C(=O)NC13CC4CC(CC(C4)C1)C3)cn2CCCCC | 3.05 |  |  | 
16 | CCCCCn1cc(C(=O)NC23CC4CC(CC(C4)C2)C3)c(=O)c2cc(C(F)(F)F)ccc21 | 2.34 |  |  | 
17 | CCCCCn1cc(C(=O)NC23CC4CC(CC(C4)C2)C3)c(=O)c2cc(-c3ccccc3)ccc21 | 3.42 |  |  | 
18 | CCCCCCn1cc(C(=O)NC2CCCCC2)c(=O)c2ccc(C)nc21 | 1.07 |  | 95 | 8
19 | CCCC(C)(C)c1ccc2c(c1)OC(C)(C)[C@@H]1CC=C(C)C[C@@H]21 | 2.3 |  |  | 
20 | COCc1ccc2c(c1)c(C(=O)C1C(C)(C)C1(C)C)cn2CC1CCOCC1 |  |  |  | 25
21 | CCCCCn1cc(C(=O)NC23CC4CC(CC(C4)C2)C3)c(=O)c2ccccc21 | 0.95 |  |  | 

Row | Compound | log(ratioKi) [1] | Ki ([2]; read-out: pKi (converted)) [nM] | Ki [3] [nM] | Ki ([2]; read-out: Ki) [nM]
22 | CC1=CC[C@@H]2[C@@H](C1)c1c(OC(=O)CCCN3CCOCC3)cc(C(C)(C)CCCCC#N)cc1OC2(C)C | 0.02 |  | 8.4 | 8
23 | CCC1CCC(C(=O)c2cn(CCN3CCOCC3)c3ccccc23)CC1 (stereo not drawn) | 1.58 |  | 616 | 16
24 | CCCCCn1cc(C(=O)NC23CC4CC(CC(C4)C2)C3)c(=O)c2cc(CC)ccc21 | 1.74 |  |  | 
25 | CC1(C)C(C(=O)c2cn(CC3CCOCC3)c3cc(O)ccc23)C1(C)C | 2.55 |  | 2950 | 8.3
26 | Cc1c(C(=O)NC2CCCCC2)nn(-c2ccc(Cl)c(Cl)c2)c1-n1cccc1 | 0.52 |  |  | 
27 | CCCCCn1cc(C(=O)NC23CC4CC(CC(C4)C2)C3)c(=O)c2cc(-c3ccc(Cl)cc3)ccc21 | 3 |  |  | 
28 | C=C1CC[C@@H]2[C@@H](C1)c1c(OC)cc(C(C)(C)CCCCCC)cc1OC2(C)C | 2.26 |  | 4890 | 11.8
29 | CCC(C)(C)C(=O)Cc1cc(C)c(C)c(S(=O)(=O)N2CCCCCC2)c1 | 2.3 |  | 1800 | 9
30 | CCCCc1c(C(=O)NC23CC4CC(CC(C4)C2)C3)nc(C)n1-c1ccccc1 | 2.3 |  |  | 
31 | CC1(Cc2ccccc2)COc2cc(C(=O)N3CCCCC3)ccc21 (stereo not drawn) | 1.37 |  | > 10000 | 
32 | Cc1nc(C(=O)NC23CC4CC(CC2C4)C3)c(C)n1-c1ccccc1 | 2.74 |  | 5440 | 9.7
33 | CCCCCn1cc(C(=O)NC23CC4CC(CC(C4)C2)C3)c(=O)c2cc(C3=CCCCC3)ccc21 | 3.08 |  |  | 
34 | CCCCCn1cc(C(=O)NC2C(C)(C)[C@@H]3CC[C@@]2(C)C3)c(=O)c2cc(-c3ccco3)ccc21 (stereo partly drawn) | 2.3 |  | 480 | 2.4
35 | CCCCCn1c(C)c(C(=O)c2ccc(CCCC)c3ccc(C)cc23)c2ccccc21 | 0.81 |  | 42 | 6.5
36 | CCCCCn1cc(C(=O)NC23CC4CC(CC(C4)C2)C3)c(=O)c2cc(-c3ccc(Cl)s3)ccc21 | 2.35 |  |  | 
37 | CC1(C)C(C(=O)c2cn(CC3CCOCC3)c3c(COc4ccccc4)cccc23)C1(C)C | 0.98 |  | 28 | 3
38 | CCCCCn1c(C)c(C(=O)c2ccc(CCC)c3ccccc23)c2ccccc21 | 0.32 |  | 1.3 | 0.6
39 | Cc1ccc(NC(=O)C(C)(C(F)(F)F)C(F)(F)F)cc1S(=O)(=O)N1CCOCC1 | 1.31 |  |  | 
40 | CC1(C)C(C(=O)c2cn(C[C@@H]3CCCO3)c3ccccc23)C1(C)C | 1.82 |  |  | 
41 | COCCn1c(C)c(C)s/c1=N\C(=O)C1C(C)(C)C1(C)C | 2.62 |  |  | 0.64
42 | CCCCC/C=C\C/C=C\C/C=C\C/C=C\CCCC(=O)N[C@H]1C[C@@H]1O |  | 191 |  | 

Row | Compound | log(ratioKi) [1] | Ki ([2]; read-out: pKi (converted)) [nM] | Ki [3] [nM] | Ki ([2]; read-out: Ki) [nM]
43 | CCCCCn1cc(C(=O)NC23CC4CC(CC(C4)C2)C3)c(=O)c2cc(-c3cc(C)c(OC)c(C)c3)ccc21 | 1.38 |  |  | 
44 | CCCCCCC(C)(C)c1cc(OC)c2c(c1)OC(C)(C)[C@@H]1CC=C(C)C[C@@H]21 | 2.21 |  | 1040 | 6.4
45 | Cc1c(C(=O)NC2CCCCC2)nn(-c2ccc(Cl)c(Cl)c2)c1-n1c(C)ccc1C | 1.05 |  |  | 
46 | CCCCCn1cc(C(=O)NC23CC4CC(CC(C4)C2)C3)c(=O)c2cc(-c3ccc(O)cc3)ccc21 | 3.38 |  |  | 
47 | CCCCCn1cc(C(=O)NC23CC4CC(CC(C4)C2)C3)c(=O)c2cc(-c3ccc(F)cc3F)ccc21 | 2.79 |  |  | 
48 | CCCCCn1cc(C(=O)NC23CC4CC(CC(C4)C2)C3)c(=O)c2cc(Sc3ccccc3)ccc21 | 2.28 |  |  | 
49 | CCCCCn1cc(C(=O)NC23CC4CC(CC(C4)C2)C3)c(=O)c2cc(I)ccc21 | 2.01 |  |  | 
50 | CCCCCCC1(c2cc(O)c3c(c2)OC(C)(C)[C@@H]2CC=C(C)C[C@@H]32)OCCO1 | 0.43 |  | 0.5 | 0.2
51 | Cc1nc(C(=O)Nc2ccccc2C(F)(F)F)c(C)n1-c1ccccc1 | 2.6 |  | 1420 | 3.5
52 | Cc1nc(C(=O)NC23CC4CC(CC(C4)C2)C3)c(C)n1-c1ccccc1 | 3.2 |  |  | 
53 | COc1ccc2c(c1)c(C(=O)C1C(C)(C)C1(C)C)cn2CC1CCOCC1 | 2 |  |  | 
54 | COCCn1cc(C(=O)C2C(C)(C)C2(C)C)c2ccccc21 | 2.35 |  |  | 
55 | COc1cccc2c(C(=O)C3C(C)(C)C3(C)C)cn(CC3CCOCC3)c12 |  |  |  | 0.1
56 | CN1CCCCC1Cn1cc(C(=O)c2cc([N+](=O)[O-])ccc2I)c2ccccc21 (stereo not drawn) | 2.64 |  |  | 
57 | C=CCCn1cc(C(=O)NC23CC4CC(CC(C4)C2)C3)c(=O)c2cc(-c3ccco3)ccc21 | 3.35 |  |  | 
58 | CCCCCn1cc(C(=O)NC23CC4CC(CC(C4)C2)C3)c(=O)c2cc(CCc3ccccc3)ccc21 | 2.27 |  |  | 
59 | Cc1ccc(-c2nc(CC(C)(C)C)cs2)cc1S(=O)(=O)N1CCOCC1 | 1.58 |  |  | 
60 | CCCCCn1cc(C(=O)NC23CC4CC(CC(C4)C2)C3)c(=O)c2cc(Br)ccc21 | 1.82 |  |  | 
61 | O=C(c1cn(CC2CCOCC2)c2ccccc12)C1CCCC1 | 1.07 |  |  | 
62 | COc1ccc(-c2oc3cc(OC)ccc3c2C(=O)c2ccc(C#N)cc2)cc1 |  | 14800 |  | 
63 | CCCCCn1cc(C(=O)NC23CC4CC(CC(C4)C2)C3)c(=O)c2cc(C3CCCCC3)ccc21 | 3.14 |  |  | 

Row | Compound | log(ratioKi) [1] | Ki ([2]; read-out: pKi (converted)) [nM] | Ki [3] [nM] | Ki ([2]; read-out: Ki) [nM]
64 | CCc1nc(C(=O)NC23CC4CC(CC(C4)C2)C3)c(C)n1-c1ccccc1 | 3.41 |  |  | 
65 | CCCCCn1cc(C(=O)NC2C3CC4CC(C3)CC2C4)c(=O)c2ccccc21 (stereo not drawn) | 2.16 |  |  | 
66 | CCCCCn1cc(C(=O)NC23CC4CC(CC(C4)C2)C3)c(=O)c2cc(-c3cccs3)ccc21 | 3.68 |  |  | 
67 | C#CCn1cc(C(=O)NC23CC4CC(CC(C4)C2)C3)c(=O)c2cc(Br)ccc21 | 1.81 |  |  | 
68 | CCCCCn1cc(C(=O)NC23CC4CC(CC(C4)C2)C3)c(=O)c2cc(-c3ccc(C#N)cc3)ccc21 | 2.38 |  |  | 
69 | CCCCCn1cc(C(=O)NC23CC4CC(CC(C4)C2)C3)c(=O)c2cc(-c3ccco3)ccc21 | 4.15 |  |  | 
70 | CC1=CC[C@@H]2[C@@H](C1)c1c(O)cc(C3(C4CCCCC4)SCCS3)cc1OC2(C)C | 0.24 |  |  | 
71 | CCCCCn1c(C)c(C(=O)c2cccc3ccccc23)c2ccccc21 | 0.28 |  |  | 
72 | Cc1ccc(C(=O)NC(C(C)(C)C)C(C)(C)C)cc1S(=O)(=O)N1CCOCC1 | 0.95 |  |  | 
73 | CC1(C)C(C(=O)c2cn(CC3CCOCC3)c3ccc(OCc4ccccc4)cc23)C1(C)C | 2.3 |  | 234 | 
74 | CC1=CC[C@@H]2[C@@H](C1)c1c(O)cc(C3(C#N)CCCCC3)cc1OC2(C)C | 0.34 |  |  | 
75 | CC1(C)C(C(=O)c2cn(CCN3CCOCC3)c3cccc(N)c23)C1(C)C | 2.05 |  | 3500 | 
76 | COc1ccc2c(c1)c(CCN1CCOCC1)c(C)n2C(=O)c1cccc(Cl)c1Cl | 2.21 |  |  | 
77 | CCCCCCNC(=O)c1cn(CCCCC)c2ccc(Br)cc2c1=O |  | 891 |  | 
78 | CCC(C)(C)C(=O)Nc1cc(CN2CCOCC2)c(C)cn1 | 2.19 |  |  | 
79 | Cc1ccc(NC(=O)C2CCCCC2(C)C)cc1S(=O)(=O)N1CCOCC1 (stereo not drawn) | 1.85 |  |  | 
80 | CC1=CC[C@@H]2[C@@H](C1)c1c(O)cc(C(C)(C)C3CCCCCC3)cc1OC2(C)C | 0.63 |  |  | 
81 | Cc1ccc(NC(=O)C2C(C)(C)C2(C)C)cc1S(=O)(=O)N1CCOCC1 | 2.16 |  |  | 
82 | CCCCCOc1c(OC)ccc2cc(C(=O)NCc3ccc4c(c3)OCO4)c(=O)[nH]c12 |  |  | 2370 | 
